These results are taken from PubChem BioAssay (NCI).

Test systems include OVCAR-8 ovarian; HS 578T breast; SK-OV-3 ovarian; EKVX NSCLC; M14 melanoma; SK-MEL-2 melanoma; A549 NSCLC; OVCAR-4 ovarian; NCI-H522 lung; MOLT-4 leukemia.
Assay in all cases: growth of human tumour cells (NCI), 48 h

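Dose response: 5 concentrations. Exposure: 48 h. Format: 96-well plates. Endpoint: linear interpolation; highest concentration if not reached. GI50: concentration for 50% inhibition of growth. TGI marks complete inhibition of growth.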 *1 amine or outer side, *2 acyl side, *3 side chain or, on linkers, in order; H or OH if unused. Where a SMILES comes first, the peptide text is derived from it. [ ]: non-standard residue; d: D form. ξ: configuration not given here. X21 = CC[C@@H](C)C(N[*:1])C(=O)[*:2]; ξR = N=C(N)NCCCC(N)C(=O)O; ξI = CCC(C)C(N)C(=O)O; ξL = CC(C)CC(N)C(=O)O; ξK = NCCCCC(N)C(=O)O; ξV = CC(C)C(N)C(=O)O; ξA = CC(N)C(=O)O

`N#C/C(=C\c1ccc(Br)cc1)n1nnc2ccccc21`: the GI50 in the assay with OVCAR-8 ovarian is 0.788 µM; in the assay with HS 578T breast, 2.63 µM; in the assay on SK-OV-3 ovarian, 5.11 µM; in the assay with EKVX NSCLC it was 1.41 µM; with M14 melanoma, 0.386 µM; in the assay with SK-MEL-2 melanoma, 0.71 µM. Besides, the GI50 is 0.808 µM in the assay with A549 NSCLC, 1.5 µM in the assay on OVCAR-4 ovarian, 0.191 µM with NCI-H522 lung and 1.48 µM with MOLT-4 leukemia. For the same molecule, the TGI in the assay with OVCAR-8 ovarian was determined as 13.6 µM; in the assay on HS 578T breast, 14 µM; with SK-OV-3 ovarian, 22.1 µM; in the assay on EKVX NSCLC, 7.48 µM; in the assay on M14 melanoma, 3.44 µM; in the assay with SK-MEL-2 melanoma it was 3.42 µM. Further, the TGI with A549 NSCLC was 15 µM; in the assay on OVCAR-4 ovarian, 5.25 µM; with NCI-H522 lung, 1.25 µM; in the assay on MOLT-4 leukemia it was 11.4 µM.

In the case of `COc1cc(OC)c(C(=O)/C=C/c2cccc(OC(C)=O)c2)cc1CC=C(C)C`, the GI50 was 8.38 µM in the assay on OVCAR-8 ovarian; > 50 µM with HS 578T breast; 10.9 µM with SK-OV-3 ovarian; 30.2 µM with EKVX NSCLC; 7.3 µM with M14 melanoma; 8.9 µM in the assay with SK-MEL-2 melanoma. Further, the GI50 was 15.2 µM in the assay on A549 NSCLC, 5.73 µM in the assay with OVCAR-4 ovarian, 8.76 µM in the assay with NCI-H522 lung and 7.64 µM with MOLT-4 leukemia. For the same molecule, the TGI was > 50 µM in the assay on OVCAR-8 ovarian; > 50 µM in the assay on HS 578T breast; 28.2 µM in the assay with SK-OV-3 ovarian; > 50 µM in the assay with EKVX NSCLC; 18.2 µM with M14 melanoma; 35.6 µM with SK-MEL-2 melanoma. The TGI was > 50 µM with A549 NSCLC, > 50 µM with OVCAR-4 ovarian, 22.2 µM in the assay on NCI-H522 lung and 43.6 µM in the assay on MOLT-4 leukemia.

On to `CCC(C)C1NC(=O)C(CC(C)C)NC(=O)C(C)NC(=O)C(C(C)C)NC(=O)C(CCCCN)NC(=O)C(CC(C)C)NC(=O)C(C(C)C)NC(=O)[C@H](C)NC(=O)C(C(C)CC)NC(=O)C(CCCN=C(N)N)NC(=O)C(CCCCN)NC(=O)C(CCCN=C(N)N)NC(=O)C(CCCCN)NC(=O)C([C@H](C)CC)NC(=O)C(CCCCN)NC1=O` (stereo not given in full) (cyclo(A[ξV][ξL][ξK][ξV][ξA][ξL][ξI][ξK][X21][ξK][ξR][ξK][ξR][ξI])), for which the GI50 is 1.48 µM with OVCAR-8 ovarian; 1.72 µM in the assay on HS 578T breast; 1.99 µM in the assay with SK-OV-3 ovarian; 0.61 µM in the assay with EKVX NSCLC; 1.5 µM in the assay on M14 melanoma; 1.72 µM in the assay with SK-MEL-2 melanoma. Besides, the GI50 was 1.48 µM in the assay with A549 NSCLC, 0.72 µM with OVCAR-4 ovarian, 1.45 µM with NCI-H522 lung and 0.752 µM in the assay on MOLT-4 leukemia. Also, the TGI in the assay with OVCAR-8 ovarian was found to be 4.87 µM; in the assay with HS 578T breast, 4.63 µM; in the assay with SK-OV-3 ovarian, 5.94 µM; in the assay on EKVX NSCLC it was 2.9 µM; in the assay on M14 melanoma, 3.13 µM; with SK-MEL-2 melanoma, 4.09 µM. Moreover, the TGI in the assay on A549 NSCLC was determined as 4.41 µM; in the assay with OVCAR-4 ovarian, 10.2 µM; in the assay with NCI-H522 lung, 3.88 µM; in the assay with MOLT-4 leukemia it was 2.82 µM.

For `COc1ccc2c(c1)C1(C(=O)N2)C(C#N)=C(c2ccccc2)Nc2c1c(-c1ccccc1)nn2-c1ccccc1` (stereo not given), the GI50 in the assay with OVCAR-8 ovarian is 3.54 µM; in the assay with HS 578T breast, 4.1 µM; in the assay on SK-OV-3 ovarian, 2.08 µM; with EKVX NSCLC, 4.44 µM; in the assay with M14 melanoma, 2.44 µM; in the assay on SK-MEL-2 melanoma, 6.47 µM. Further, the GI50 in the assay with A549 NSCLC is 2.49 µM; in the assay with OVCAR-4 ovarian, 1.77 µM; in the assay on NCI-H522 lung, 3.75 µM; in the assay on MOLT-4 leukemia, 3.37 µM. Further, the TGI with OVCAR-8 ovarian is 12.7 µM; in the assay with HS 578T breast it was 19.3 µM; with SK-OV-3 ovarian, 5.14 µM; in the assay with EKVX NSCLC it was 22.2 µM; in the assay with M14 melanoma it was 7.32 µM; with SK-MEL-2 melanoma, 21.8 µM. Moreover, the TGI amounted to 5.55 µM in the assay with A549 NSCLC, 3.5 µM with OVCAR-4 ovarian, 18.3 µM with NCI-H522 lung and 11 µM in the assay with MOLT-4 leukemia.
